Broadly, the ED50 is the midpoint of the dose-response relation. In general, IC50 refers to the concentration that gives 50% inhibition. Higher therefore signals weaker potency in that assay.

The text below walks through data of patent US5217969A, “Benzoxazine derivatives as inhibitors of leukotrienes” (Imperial Chemical Industries PLC, priority 1990, dated 1993).

Each structure is given as a SMILES string.

Experiment [1] deals with T1, 5-LO (Rattus norvegicus, UniProt P12527).
T1 construct: liberation of LTB4 induced by zymosan within an air pouch generated within the subcutaneous tissue of the back of male rats; endogenous in cells; host or cells: living male rats; endogenous enzyme of cells in the zymosan-inflamed subcutaneous air pouch
T1 sequence (P12527 1-673): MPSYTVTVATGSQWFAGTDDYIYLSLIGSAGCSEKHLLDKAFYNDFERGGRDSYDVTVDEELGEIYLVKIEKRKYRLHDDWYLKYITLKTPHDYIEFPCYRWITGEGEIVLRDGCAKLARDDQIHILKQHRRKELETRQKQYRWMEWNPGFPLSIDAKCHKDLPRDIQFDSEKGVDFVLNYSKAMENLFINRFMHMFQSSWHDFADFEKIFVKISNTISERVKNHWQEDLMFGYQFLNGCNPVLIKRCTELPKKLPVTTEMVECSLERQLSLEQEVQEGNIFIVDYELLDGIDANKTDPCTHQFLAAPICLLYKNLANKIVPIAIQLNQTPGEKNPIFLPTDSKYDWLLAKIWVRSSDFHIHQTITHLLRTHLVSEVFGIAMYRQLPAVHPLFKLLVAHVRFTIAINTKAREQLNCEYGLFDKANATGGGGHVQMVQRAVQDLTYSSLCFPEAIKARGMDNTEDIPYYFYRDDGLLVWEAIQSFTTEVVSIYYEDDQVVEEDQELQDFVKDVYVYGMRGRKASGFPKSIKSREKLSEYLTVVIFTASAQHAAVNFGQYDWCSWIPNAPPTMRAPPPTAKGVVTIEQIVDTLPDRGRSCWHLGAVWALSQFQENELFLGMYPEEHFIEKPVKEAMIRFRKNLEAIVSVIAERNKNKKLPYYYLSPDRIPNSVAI
Kind of experiment: test g) liberation of LTB4 induced by zymosan within an air pouch of male rats. To be noted: oral. Type of experiment: in vivo. The protocol:
g) An in vivo system involving measuring the effects of a test compound administered orally against the liberation of LTB4 induced by zymosan within an air pouch generated within the subcutaneous tissue of the back of male rats. The rats are anaesthetised and air pouches are formed by the injection of sterile air (20 ml). A further injection of air (10 ml) is similarly given after 3 days. At 6 days after the initial air injection the test compound is administered (usually orally as the suspension produced when a solution of the test compound in dimethylsulphoxide is added to hydroxypropylmethylcellulose), followed by the intrapouch injection of zymosan (1 ml of a 1% suspension in physiological saline). After 3 hours the rats are killed, the air pouches are lavaged with physiological saline, and the specific radioimmunoassay described above is used to assay LTB4 in the washings. This test provides an indication of inhibitory effects against 5-LO in an inflammatory milieu.

For experiment [2], the target named is T2, 5-LO (Homo sapiens, UniProt P09917).
T2 construct: heparinised human blood, prior to challenge with the calcium ionophore A23187; endogenous in cells; host or cells: heparinised human blood (endogenous enzyme of the blood cells)
T2 sequence (P09917 1-674): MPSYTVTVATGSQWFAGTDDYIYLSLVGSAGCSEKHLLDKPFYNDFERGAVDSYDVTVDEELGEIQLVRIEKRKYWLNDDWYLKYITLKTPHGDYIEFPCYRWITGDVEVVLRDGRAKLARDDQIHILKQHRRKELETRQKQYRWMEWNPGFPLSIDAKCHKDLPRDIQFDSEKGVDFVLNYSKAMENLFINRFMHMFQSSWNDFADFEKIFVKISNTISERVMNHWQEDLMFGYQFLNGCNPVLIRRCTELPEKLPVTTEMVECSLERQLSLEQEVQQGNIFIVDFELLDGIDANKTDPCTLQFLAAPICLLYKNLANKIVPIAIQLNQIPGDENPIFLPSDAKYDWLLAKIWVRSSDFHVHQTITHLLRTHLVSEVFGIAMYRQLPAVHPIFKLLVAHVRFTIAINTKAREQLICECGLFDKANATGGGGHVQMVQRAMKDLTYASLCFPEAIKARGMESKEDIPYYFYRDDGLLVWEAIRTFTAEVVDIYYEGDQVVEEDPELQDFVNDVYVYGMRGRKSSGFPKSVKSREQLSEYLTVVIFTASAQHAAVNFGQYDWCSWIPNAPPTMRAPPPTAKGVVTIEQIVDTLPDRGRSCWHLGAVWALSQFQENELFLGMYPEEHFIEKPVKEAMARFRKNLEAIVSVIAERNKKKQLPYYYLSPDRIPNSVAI
The experiment can be described thus: test b) heparinised human blood challenged with A23187, LTB4 radioimmunoassay. Type of experiment: cell-based. The protocol: b) An in vitro assay system involving incubating a test compound with heparinised human blood, prior to challenge with the calcium ionophore A23187 and then indirectly measuring the inhibitory effects on 5-LO by assaying the amount of LTB4 using the specific radioimmunoassays described by Carey and Forder (F. Carey and R. A. Forder, Prostaglandins, Leukotrienes Med., 1986, 22, 57; Prostaglandins, 1984, 28, 666; Brit. J. Pharmacol. 1985, 84, 34P) which involve the use of a protein-LTB4 conjugate produced using the procedure of Young et alia (Prostaglandins, 1983, 26(4), 605-613). The effects of a test compound on the enzyme cyclooxygenase (which is involved in the alternative metabolic pathway for arachidonic acid and gives rise to prostaglandins, thromboxanes and related metabolites) may be measured at the same time using the specific radioimmunoassay for thromboxane B2 (T×B2) described by Carey and Forder (see above). This test provides an indication of the effects of a test compound against 5-LO and also cyclooxygenase in the presence of blood cells and proteins. It permits the selectivity of the inhibitory effect on 5-LO or cyclooxygenase to be assessed.

As for `COC1(c2cc(F)cc(OCc3ccc4c(c3)OC(C)(C)C(=O)N4C)c2)CCOCC1` [Example 2, 4-[5-fluoro-3-(2,2,4-trimethyl-3-oxo-2,3-dihydro-4H-1,4-benzoxazin-7-ylmethoxy)phenyl]-4-methoxytetrahydropyran], the ED50 on 5-LO [1] came to 1.5 mg/kg. The half-maximal inhibitory concentration (IC50) against 5-LO [2] came out at 50 nM.
Consider `COC1(c2cc(F)cc(Sc3ccc4c(c3)OCC(=O)N4C)c2)CCOCC1` [Example 5, 4-[5-fluoro-3-(4-methyl-3-oxo-2,3-dihydro-4H-1,4-benzoxazin-7-ylthio)phenyl]-4-methoxytetrahydropyran], for which, at 5-LO [1], the ED50 is 0.15 mg/kg. Moreover, the half-maximal inhibitory concentration (IC50) against 5-LO [2] worked out at 50 nM.
As for `COC1(c2cc(F)cc(Sc3ccc4c(c3)OCC(=S)N4C)c2)CCOCC1` [Example 7, 4-[5-fluoro-3-(4-methyl-3-thioxo-2,3-dihydro-4H-1,4-benzoxazin-7-ylthio)phenyl]-4-methoxytetrahydropyran], at 5-LO [1], the ED50 came out at 1.5 mg/kg. The midpoint of inhibition on 5-LO [2], the IC50, lay at 300 nM.
For the molecule `COC1(c2cc(F)cc(OCc3ccc4c(c3)OCC(=O)N4C)c2)CCOCC1` [Example 1, 4-[5-fluoro-3-(4-methyl-3-oxo-2,3-dihydro-4H-1,4-benzoxazin-7-ylmethoxy)phenyl]-4-methoxytetrahydropyran], at 5-LO [1], the ED50 was found to be 0.4 mg/kg. In addition, the midpoint of inhibition against 5-LO [2], the IC50, lay at 40 nM.
